Laboratory results reported in PubChem BioAssay (NCI).
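Step 1: Grow cells in 96-well plates. Step 2: Expose to compound for 48 hours at 5 concentrations. Step 3: Interpolate endpoints linearly; if unreached, use highest concentration. GI50: concentration for 50% inhibition of growth. TGI: concentration producing complete growth inhibition.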

What was measured:
Test in all cases: NCI tumour cell line growth inhibition, 48 h
RXF 393 renal = tested on: RXF 393 renal
SK-MEL-28 melanoma = tested on: SK-MEL-28 melanoma
SK-MEL-2 melanoma = tested on: SK-MEL-2 melanoma
A498 renal = tested on: A498 renal
SNB-75 CNS = tested on: SNB-75 CNS
IGROV1 ovarian = tested on: IGROV1 ovarian
PC-3 prostate = tested on: PC-3 prostate
CCRF-CEM leukemia = tested on: CCRF-CEM leukemia
SW-620 colon = tested on: SW-620 colon
MDA-MB-231 breast = tested on: MDA-MB-231 breast

| Compound | GI50 (RXF 393 renal) [µM] | TGI (RXF 393 renal) [µM] | GI50 (SK-MEL-28 melanoma) [µM] | TGI (SK-MEL-28 melanoma) [µM] | GI50 (SK-MEL-2 melanoma) [µM] | TGI (SK-MEL-2 melanoma) [µM] | GI50 (A498 renal) [µM] | TGI (A498 renal) [µM] | GI50 (SNB-75 CNS) [µM] | TGI (SNB-75 CNS) [µM] | GI50 (IGROV1 ovarian) [µM] | TGI (IGROV1 ovarian) [µM] | GI50 (PC-3 prostate) [µM] | TGI (PC-3 prostate) [µM] | GI50 (CCRF-CEM leukemia) [µM] | TGI (CCRF-CEM leukemia) [µM] | GI50 (SW-620 colon) [µM] | TGI (SW-620 colon) [µM] | GI50 (MDA-MB-231 breast) [µM] | TGI (MDA-MB-231 breast) [µM] |
| --- | --- | --- | --- | --- | --- | --- | --- | --- | --- | --- | --- | --- | --- | --- | --- | --- | --- | --- | --- | --- |
| CN1CCN(Cc2ccc(NC(=O)c3cncc(C#Cc4cnn5ccccc45)c3)cc2C(F)(F)F)CC1 | 0.693 | 1.66 | 1.22 | 3.53 | 0.891 | 2.02 | 0.821 | 1.89 | 0.893 | 1.81 | 0.858 | 3.61 | 1.01 | 4.19 | 0.202 | 1.67 | 0.382 | 3.22 | 0.608 | 3.05 |
| CC1CC(C)C2=NOS3=C2C1=NO3 (stereo not given) |  | > 100 |  | > 100 |  | > 100 |  | 94.8 |  | > 100 |  | > 100 |  | > 100 |  | > 100 |  | > 100 |  | > 100 |
| O=C(NN1C(=O)CSC12CCCC2)C(O)c1ccccc1 (stereo not given) | > 100 | > 100 | > 100 | > 100 | > 100 | > 100 | > 100 | > 100 | > 100 | > 100 | > 100 | > 100 | > 100 | > 100 | > 100 | > 100 | > 100 | > 100 | > 100 | > 100 |
| COc1cc2ncn(-c3cc(OCc4ccccc4C(F)(F)F)c(C(C)=O)s3)c2cc1OC | > 21.5 | > 25 | > 25 | > 25 | > 25 | > 25 | 4.1 | 17.2 | 19 | > 25 | > 25 | > 25 | > 25 | > 25 | > 25 | > 25 | > 25 | > 25 | 24.2 | > 25 |
| Nc1nc(N)c(N=Nc2ccc(C(=O)O)c(O)c2)c(N)n1 |  | > 100 |  | > 100 |  | > 100 |  | > 100 |  | > 100 |  | > 100 |  | > 100 |  | > 100 |  | > 100 |  | > 100 |
| CSc1ccc(C2=NN(C(C)=O)C(c3ccc(F)cc3)C2)cc1 (stereo not given) | 18.5 | 34.6 | 17 | 34.2 | 20.5 | 41.2 | 12.5 | 26.8 | 20 | 44.1 | 7.73 | 34.8 | 12.7 | 42.4 | 0.617 | 24.5 | 17.7 | 40.3 | 10.7 | 28.6 |
